Test results taken from US20230000876A1, “TREATING CANCERS WITH A CYCLIN-DEPENDENT KINASE INHIBITOR” (Nuvation Bio Inc., priority 2021, published 2023).
Where two headings read alike, the source gives them in different places.

Tests used:
MCF-7 tumors [1] = assay type: in vivo; settings: for T/C / TGI: PG-D37
Procedure: The in vivo anti-tumor efficacy of the compound of formula (I) either alone or in combination with fulvestrant on MCF-7 breast tumor model on female Balb/c nude mice was assessed. MCF-7 cells are a breast cancer cell line that is HR+HER2−. See Booms et al., (2019) Cancer Epidemiol Biomarkers Prev 28(10); 1735-1745, which is hereby incorporated by reference.
The study was in two parts. The first part was designed to measure tumor growth inhibition (TGI). The second part was used to measure pharmacokinetic and pharmacodynamic (PKPD) parameters. In the studies, the compound of formula (I) was dosed orally (po) and fulvestrant was dosed subcutaneously. […]
The MCF-7 tumor cells were maintained in vitro in MEM supplemented with 10% heat inactivated fetal bovine serum at 37° C. in an atmosphere of 5% CO2 in air. The tumor cells were routinely subcultured twice weekly. The cells growing in an exponential growth phase were harvested and counted for tumor inoculation.
Each mouse was inoculated subcutaneously at the right flank with MCF-7 (10*10^6) cells in 0.2 mL of PBS mixed with Matrigel (50:50) for tumor development. 17β-Estradiol (0.36 mg, 60-day release) pellets (Innovative Research of America Cat. No.: SE-121, pellet size: 3.0 mm) were implanted 2 days before cell inoculation.
In TGI part, the treatments was started on day 7 after cell inoculation when the average tumor volume reaches 173 mm^3. 72 mice were selected and assigned into 9 groups. The testing articles were administrated to the mice according to Table 1.
For TGI part, the major endpoint was to see if the tumor growth could be delayed or mice could be cured. Tumor size was measured twice weekly in two dimensions using a caliper, and the volume was expressed in mm^3 using the formula: V=0.5 a×b^2 where a and b are the long and short diameters of the tumor, respectively. The tumor sizes are then used for the calculation of T/C and TGI values.
The T/C value (in percent) is an indication of antitumor effectiveness; T and C are the mean volume of the treated and control groups, respectively, on a given day.
TGI was calculated for each group using the formula: TGI (%)=[1−(Ti−T0)/(Vi−V0)]×100; Ti is the average tumor volume of a treatment group on PG-Di, T0 is the average tumor volume of the treatment group on the day of treatment start, Vi is the average tumor volume of the vehicle control group on the same day with Ti, and V0 is the average tumor volume of the vehicle group on the day of treatment start.
For comparison among of tumor volume of groups 2-9 and group 1, a one-way ANOVA was performed. All the analysis were conducted using GraphPad Prism software. p<0.05 was considered to be statistically significant.

MCF-7 tumors [2] = assay type: in vivo; settings: 1/3/5 mg/dose SC QW, PG-D49
Procedure: The in vivo anti-tumor efficacy of the compound of formula (I) either alone or in combination with fulvestrant on MCF-7 breast tumor model on female Balb/c nude mice was evaluated. The protocol was he same as described in Example 1 with the exception that the dosing schedule of fulvestrant was modified.

xBT474 breast tumor = xBT474 breast tumor model (ER-negative/HER2-positive); settings: Group 2: Fulvestrant 1 mg/dose SC QW*28 days
xMDA-MB-361 breast tumor = xMDA-MB-361 breast tumor model (ER-positive/HER2-positive); assay type: in vivo, female BALB/c nude mice; settings: Group 2: Fulvestrant 1 mg/dose SC QW*42 days
Procedure: Trastuzumab, tucatinib, Compound (I), and fulvestrant were tested in a xMDA-MB-361 breast tumor model (ER-positive/HER2-positive) on female BALB/c nude mice.

C[C@]12CC[C@@H]3c4ccc(O)cc4C[C@@H](CCCCCCCCC[S+]([O-])CCCC(F)(F)C(F)(F)F)[C@H]3[C@@H]1CC[C@@H]2O (stereo partly shown) [Fulvestrant, reference compound]
T/C (MCF-7 tumors [1]; 1 mg/dose QW): 42.68% | TGI (MCF-7 tumors [1]; 1 mg/dose QW): 62.74% | Tumor volume (mean ± SEM) (MCF-7 tumors [1]; 1 mg/dose SC QW, day 0): 173 ± 12 mm^3 | Tumor volume (mean ± SEM) (MCF-7 tumors [1]; 1 mg/dose SC QW, day 3): 206 ± 10 mm^3 | Tumor volume (mean ± SEM) (MCF-7 tumors [1]; 1 mg/dose SC QW, day 6): 272 ± 20 mm^3 | Tumor volume (mean ± SEM) (MCF-7 tumors [1]; 1 mg/dose SC QW, day 9): 315 ± 33 mm^3 | Tumor volume (mean ± SEM) (MCF-7 tumors [1]; 1 mg/dose SC QW, day 13): 389 ± 50 mm^3 | Tumor volume (mean ± SEM) (MCF-7 tumors [1]; 1 mg/dose SC QW, day 16): 472 ± 47 mm^3 | Tumor volume (mean ± SEM) (MCF-7 tumors [1]; 1 mg/dose SC QW, day 20): 595 ± 87 mm^3 | Tumor volume (mean ± SEM) (MCF-7 tumors [1]; 1 mg/dose SC QW, day 23): 623 ± 93 mm^3 | Tumor volume (mean ± SEM) (MCF-7 tumors [1]; 1 mg/dose SC QW, day 27): 697 ± 104 mm^3 | Tumor volume (mean ± SEM) (MCF-7 tumors [1]; 1 mg/dose SC QW, day 30): 727 ± 116 mm^3 | Tumor volume (mean ± SEM) (MCF-7 tumors [1]; 1 mg/dose SC QW, day 34): 829 ± 130 mm^3 | Tumor volume (mean ± SEM) (MCF-7 tumors [1]; 1 mg/dose SC QW, day 37): 856 ± 140 mm^3 | Tumor volume (mean ± SEM) (MCF-7 tumors [1]; 1 mg/dose SC QW, day 41): 859 ± 142 mm^3 | Tumor volume (mean ± SEM) (MCF-7 tumors [1]; 1 mg/dose SC QW, day 44): 808 ± 164 mm^3 | Tumor volume (mean ± SEM) (MCF-7 tumors [1]; 1 mg/dose SC QW, day 48): 623 ± 104 mm^3 | T/C (MCF-7 tumors [1]; 3 mg/dose QW): 15.70% | TGI (MCF-7 tumors [1]; 3 mg/dose QW): 92.26% | Tumor volume (mean ± SEM) (MCF-7 tumors [1]; 3 mg/dose SC QW, day 0): 173 ± 13 mm^3 | Tumor volume (mean ± SEM) (MCF-7 tumors [1]; 3 mg/dose SC QW, day 3): 181 ± 9 mm^3 | Tumor volume (mean ± SEM) (MCF-7 tumors [1]; 3 mg/dose SC QW, day 6): 205 ± 16 mm^3 | Tumor volume (mean ± SEM) (MCF-7 tumors [1]; 3 mg/dose SC QW, day 9): 240 ± 12 mm^3 | Tumor volume (mean ± SEM) (MCF-7 tumors [1]; 3 mg/dose SC QW, day 13): 310 ± 25 mm^3 | Tumor volume (mean ± SEM) (MCF-7 tumors [1]; 3 mg/dose SC QW, day 16): 337 ± 33 mm^3 | Tumor volume (mean ± SEM) (MCF-7 tumors [1]; 3 mg/dose SC QW, day 20): 285 ± 32 mm^3 | Tumor volume (mean ± SEM) (MCF-7 tumors [1]; 3 mg/dose SC QW, day 23): 288 ± 44 mm^3 | Tumor volume (mean ± SEM) (MCF-7 tumors [1]; 3 mg/dose SC QW, day 27): 275 ± 35 mm^3 | Tumor volume (mean ± SEM) (MCF-7 tumors [1]; 3 mg/dose SC QW, day 30): 294 ± 35 mm^3 | Tumor volume (mean ± SEM) (MCF-7 tumors [1]; 3 mg/dose SC QW, day 34): 314 ± 48 mm^3 | Tumor volume (mean ± SEM) (MCF-7 tumors [1]; 3 mg/dose SC QW, day 37): 315 ± 50 mm^3 | Tumor volume (mean ± SEM) (MCF-7 tumors [1]; 3 mg/dose SC QW, day 41): 329 ± 54 mm^3 | Tumor volume (mean ± SEM) (MCF-7 tumors [1]; 3 mg/dose SC QW, day 44): 294 ± 48 mm^3 | Tumor volume (mean ± SEM) (MCF-7 tumors [1]; 3 mg/dose SC QW, day 48): 228 ± 29 mm^3 | T/C (MCF-7 tumors [2]): 38.19% | TGI (MCF-7 tumors [2]): 71.50% | Tumor Size (MCF-7 tumors [2]): 451 mm^3 | Tumor volume (mean ± SEM) (xBT474 breast tumor; Day 0): 146 ± 10 mm^3 | Tumor volume (mean ± SEM) (xBT474 breast tumor; Day 4): 188 ± 26 mm^3 | Tumor volume (mean ± SEM) (xBT474 breast tumor; Day 7): 187 ± 14 mm^3 | Tumor volume (mean ± SEM) (xBT474 breast tumor; Day 11): 311 ± 55 mm^3 | Tumor volume (mean ± SEM) (xBT474 breast tumor; Day 14): 391 ± 55 mm^3 | Tumor volume (mean ± SEM) (xBT474 breast tumor; Day 18): 468 ± 69 mm^3 | Tumor volume (mean ± SEM) (xBT474 breast tumor; Day 21): 532 ± 79 mm^3 | Tumor volume (mean ± SEM) (xBT474 breast tumor; Day 25): 617 ± 93 mm^3 | Tumor volume (mean ± SEM) (xBT474 breast tumor; Day 28): 741 ± 113 mm^3 | Tumor volume (mean ± SEM) (xBT474 breast tumor; Day 32): 750 ± 115 mm^3 | Tumor volume (mean ± SEM) (xBT474 breast tumor; Day 35): 797 ± 121 mm^3 | Tumor volume (mean ± SEM) (xBT474 breast tumor; Day 39): 800 ± 131 mm^3 | Tumor volume (mean ± SEM) (xBT474 breast tumor; Day 42): 843 ± 146 mm^3 | Tumor volume (mean ± SEM) (xBT474 breast tumor; Day 46): 816 ± 138 mm^3 | Tumor volume (mean ± SEM) (xMDA-MB-361 breast tumor; Day 0): 157 ± 13 mm^3 | Tumor volume (mean ± SEM) (xMDA-MB-361 breast tumor; Day 3): 185 ± 11 mm^3 | Tumor volume (mean ± SEM) (xMDA-MB-361 breast tumor; Day 7): 226 ± 28 mm^3 | Tumor volume (mean ± SEM) (xMDA-MB-361 breast tumor; Day 10): 321 ± 53 mm^3 | Tumor volume (mean ± SEM) (xMDA-MB-361 breast tumor; Day 14): 489 ± 101 mm^3 | Tumor volume (mean ± SEM) (xMDA-MB-361 breast tumor; Day 17): 588 ± 153 mm^3 | Tumor volume (mean ± SEM) (xMDA-MB-361 breast tumor; Day 21): 773 ± 204 mm^3 | Tumor volume (mean ± SEM) (xMDA-MB-361 breast tumor; Day 24): 890 ± 235 mm^3 | Tumor volume (mean ± SEM) (xMDA-MB-361 breast tumor; Day 28): 1022 ± 256 mm^3 | Tumor volume (mean ± SEM) (xMDA-MB-361 breast tumor; Day 31): 1113 ± 293 mm^3 | Tumor volume (mean ± SEM) (xMDA-MB-361 breast tumor; Day 35): 1192 ± 330 mm^3 | Tumor volume (mean ± SEM) (xMDA-MB-361 breast tumor; Day 38): 1300 ± 344 mm^3 | Tumor volume (mean ± SEM) (xMDA-MB-361 breast tumor; Day 42): 1396 ± 356 mm^3
